From patent US4193997A, “Thieno[2,3-c] and [3,2-c]pyridines, process for their preparation and therapeutic applications thereof” (Parcor, priority 1977, dated 1980)

What was measured:
[1] = system: A.D.P.-induced blood-platelet aggregation; test: A.D.P.-induced blood-platelet aggregation after oral treatment of rats; type: in vivo, Wistar rats; conditions: Rattus norvegicus, 100 mg/kg oral, 3 hrs after treatment, 10 μM A.D.P. solution, read-out: Percent inhibition of blood-platelet aggregation, A.D.P.
Description: (§1) Blood is taken from the jugular vein of Wistar rats. From this citrated blood, and after centrifugation, a plasma containing 600,000±20,000 blood-platelets per mm 3 is reconstituted, which plasma is used in all aggregation determinations.
(§2) 0.4 ml plasma is placed in a siliconized tube provided with a magnet bar which is also siliconized. The tube is introduced into an aggregometer connected to an apparatus which records the optical density variations. When light transmission reaches a stable value, 0.5 ml of a solution containing 10 μM A.D.P. (adenosine diphosphate) is introduced into the tube.
Blood-platelet aggregation then induces an increase of light transmission, followed by a decrease subsequent to the disaggregation stage.
The maximal optical density variation thus determined characterizes the extent of the aggregation.
(§3) Different groups of 20 rats each are used. Each group is orally administered a test derivative, at a dosage of 100 mg/kg. The results obtained during both tests are reported in following Table I which indicates the percent inhibition of blood-platelet aggregation obtained with respect to the reference group, 3 hrs after treatment.

[2] = system: collagen-induced blood-platelet aggregation; test: Collagen-induced blood-platelet aggregation after oral treatment of rats; type: in vivo, Wistar rats; conditions: Rattus norvegicus, 100 mg/kg oral, 3 hrs after treatment, collagen (bovine tendon extract), read-out: Percent inhibition of blood-platelet aggregation, Collagen
Description: as §1, §2
The A.D.P. solution is substituted with a collagen solution (bovine tendon extract).
as §3

Red blood cells [3] = test: Anti-sludge in vitro, "curative" procedure (protamine sulfate agglomeration of red blood cells); type: cell-based, rats; conditions: 25 μg; for percent aggregates, size of agglomerates 4: reference tests 11; for percent aggregates, size of agglomerates 3: reference tests 15 or 16; for percent aggregates, size of agglomerates 2: reference tests 19; for percent aggregates, size of agglomerates 1: reference tests 33 (n°3, 4, 6) or 30 (n°11, 12, 17)
Description: (§4) Red blood cells of rats are washed three times and diluted to 1/250 concentration in physiological saline. In each of 5 tubes are placed 0.6 ml of this suspension and 0.2 ml physiological saline. Into each tube is then added, respectively, an amount of 0, 25, 50, 100 and 200 μg of the test derivative contained in 0.2 ml of solution. After incubation for one hour at 37° C., 0.2 ml of a solution containing 125 μg/ml protamine sulfate is added thereto, and the resulting material is further incubated for 0.5 hour at 37° C. The red blood cells of each tube are then examined with a Mallasez cell, and the percent free red blood cells (RBC) and the percent agglomerates formed by 2, 3, 4, 5 . . . RBC are noted.
The test was repeated according to a "curative" procedure. The red blood cells were first contacted with the protamine sulfate and, after incubation for 0.5 hour, 0.2 ml containing 25 μg of the test derivative were added thereto, after which the material was further incubated for one hour at 37° C.

Red blood cells [4] = test: Anti-sludge in vitro, "preventive" treatment (protamine sulfate agglomeration of red blood cells); type: cell-based, rats; conditions: for percent agglomerates formed by 5 RBC: controls 6 or 8; for percent agglomerates formed by 4 RBC: controls 9 or 8; for percent agglomerates formed by 3 RBC: controls 13 or 14; for percent agglomerates formed by 2 RBC: controls 17 or 16; for percent free red blood cells (size 1): controls 32 (n°3, 4, 6) or 30 (n°11, 12, 17)
Description: as §4

## O=C1c2ccsc2CCN1Cc1ccccc1Cl [Derivative n°1, 4-Oxo-5-o.chlorobenzyl-4,5,6,7-tetrahydro-thieno[3,2-c]pyridine]
[1]
  inhibition at 100 mg/kg: 60.4%
[2]
  inhibition at 100 mg/kg: 90%

## O=C1c2ccsc2CCN1Cc1ccc(Cl)cc1 [Derivative n°3, 4-Oxo-5-p.chlorobenzyl-4,5,6,7-tetrahydro-thieno[3,2-c]pyridine]
Red blood cells [3]
  percent aggregates, size of agglomerates 4: 1%
  percent aggregates, size of agglomerates 3: 5%
  percent aggregates, size of agglomerates 2: 13%
  percent aggregates, size of agglomerates 1: 81%
[1]
  inhibition at 100 mg/kg: 60.8%
Red blood cells [4]; 25 μg per tube
  percent agglomerates formed by 5 RBC: 1%
  percent agglomerates formed by 4 RBC: 2%
  percent agglomerates formed by 3 RBC: 10%
  percent agglomerates formed by 2 RBC: 24%
  percent free red blood cells (size 1): 63%
Red blood cells [4]; 50 μg per tube
  percent agglomerates formed by 4 RBC: 2%
  percent agglomerates formed by 3 RBC: 7%
  percent agglomerates formed by 2 RBC: 25%
  percent free red blood cells (size 1): 66%
Red blood cells [4]; 100 μg per tube
  percent agglomerates formed by 5 RBC: 1%
  percent agglomerates formed by 4 RBC: 1%
  percent agglomerates formed by 3 RBC: 6%
  percent agglomerates formed by 2 RBC: 15%
  percent free red blood cells (size 1): 77%
Red blood cells [4]; 200 μg per tube
  percent agglomerates formed by 4 RBC: 1%
  percent agglomerates formed by 3 RBC: 1%
  percent agglomerates formed by 2 RBC: 10%
  percent free red blood cells (size 1): 88%
[2]
  inhibition at 100 mg/kg: 91.4%

## O=C1c2sccc2CCN1Cc1ccccc1Cl [Derivative n°4, 6-o.Chlorobenzyl-7-oxo-4,5,6,7-tetrahydro-thieno[2,3-c]-pyridine]
Red blood cells [3]; reference tests 8 or 9
  percent aggregates, size of agglomerates 5: 1%
Red blood cells [3]
  percent aggregates, size of agglomerates 4: 1%
  percent aggregates, size of agglomerates 3: 3%
  percent aggregates, size of agglomerates 2: 17%
  percent aggregates, size of agglomerates 1: 78%
[1]
  inhibition at 100 mg/kg: 62.9%
Red blood cells [4]; 25 μg per tube
  percent agglomerates formed by 5 RBC: 2%
  percent agglomerates formed by 4 RBC: 3%
  percent agglomerates formed by 3 RBC: 7%
  percent agglomerates formed by 2 RBC: 20%
  percent free red blood cells (size 1): 68%
Red blood cells [4]; 50 μg per tube
  percent agglomerates formed by 5 RBC: 1%
  percent agglomerates formed by 4 RBC: 2%
  percent agglomerates formed by 3 RBC: 4%
  percent agglomerates formed by 2 RBC: 22%
  percent free red blood cells (size 1): 71%
Red blood cells [4]; 100 μg per tube
  percent agglomerates formed by 4 RBC: 2%
  percent agglomerates formed by 3 RBC: 1%
  percent agglomerates formed by 2 RBC: 17%
  percent free red blood cells (size 1): 80%
Red blood cells [4]; 200 μg per tube
  percent agglomerates formed by 3 RBC: 1%
  percent agglomerates formed by 2 RBC: 8%
  percent free red blood cells (size 1): 91%
[2]
  inhibition at 100 mg/kg: 93.1%

## O=C(c1ccccc1Cl)N1CCc2sccc2C1=O [Derivative n°6, 4-Oxo-5-o.chlorobenzoyl-4,5,6,7-tetrahydro-thieno[3,2-c]pyridine]
Red blood cells [3]
  percent aggregates, size of agglomerates 4: 2%
  percent aggregates, size of agglomerates 3: 2%
  percent aggregates, size of agglomerates 2: 15%
  percent aggregates, size of agglomerates 1: 81%
[1]
  inhibition at 100 mg/kg: 61.7%
Red blood cells [4]; 25 μg per tube
  percent agglomerates formed by 5 RBC: 4%
  percent agglomerates formed by 4 RBC: 5%
  percent agglomerates formed by 3 RBC: 4%
  percent agglomerates formed by 2 RBC: 22%
  percent free red blood cells (size 1): 65%
Red blood cells [4]; 50 μg per tube
  percent agglomerates formed by 5 RBC: 1%
  percent agglomerates formed by 4 RBC: 3%
  percent agglomerates formed by 3 RBC: 5%
  percent agglomerates formed by 2 RBC: 25%
  percent free red blood cells (size 1): 66%
Red blood cells [4]; 100 μg per tube
  percent agglomerates formed by 5 RBC: 1%
  percent agglomerates formed by 4 RBC: 0%
  percent agglomerates formed by 3 RBC: 3%
  percent agglomerates formed by 2 RBC: 13%
  percent free red blood cells (size 1): 83%
Red blood cells [4]; 200 μg per tube
  percent agglomerates formed by 3 RBC: 1%
  percent agglomerates formed by 2 RBC: 8%
  percent free red blood cells (size 1): 91%
[2]
  inhibition at 100 mg/kg: 91.5%

## N#Cc1ccccc1CN1CCc2sccc2C1=O [Derivative n°8, 4-Oxo-5-o.cyanobenzyl-4,5,6,7-tetrahydro-thieno[3,2-c]pyridine]
[1]
  inhibition at 100 mg/kg: 60.8%
[2]
  inhibition at 100 mg/kg: 91%

## COC(=O)c1ccccc1CN1CCc2sccc2C1=O [Derivative n°9, 4-Oxo-5-o,carbomethoxybenzyl-4,5,6,7-tetrahydro-thieno[3,2-c]-pyridine]
[1]
  inhibition at 100 mg/kg: 61.6%
[2]
  inhibition at 100 mg/kg: 90.8%

## O=C(c1ccccc1Cl)N1CCc2ccsc2C1=O [Derivative n°10, 6-o.Chlorobenzoyl-7-oxo-4,5,6,7-tetrahydro-thieno[2,3-c]pyridine]
[1]
  inhibition at 100 mg/kg: 60.9%
[2]
  inhibition at 100 mg/kg: 92.2%

## O=C(OCc1ccccc1)C1Cc2sccc2C(=O)N1Cc1ccccc1 (stereo not shown) [Derivative n°13, 4-Oxo-6-benzyloxycarbonyl-5-benzyl-4,5,6,7-tetrahydro-thieno[3,2-c]pyridine]
[1]
  inhibition at 100 mg/kg: 63.4%
[2]
  inhibition at 100 mg/kg: 91.9%

## O=C(O)C1Cc2sccc2C(=O)N1Cc1ccccc1 (stereo not shown) [Derivative n°14, 4-Oxo-6-carboxy-5-benzyl-4,5,6,7-tetrahydro-thieno[3,2-c]-pyridine]
[1]
  inhibition at 100 mg/kg: 60.5%
[2]
  inhibition at 100 mg/kg: 93%

## COc1cc(CN2C(=O)c3ccsc3CC2C(=O)O)cc(OC)c1OC (stereo not shown) [Derivative n°16, 4-Oxo-6-carboxy-5-(3,4,5-trimethoxy-benzyl)-4,5,6,7-tetrahydro-thieno[3,2-c]pyridine]
[1]
  inhibition at 100 mg/kg: 62.4%
[2]
  inhibition at 100 mg/kg: 90.5%

## O=C1NCC(c2ccccc2)c2ccsc21 (stereo not shown) [Derivative n°18, 4-Phenyl-7-oxo-4,5,6,7-tetrahydro-thieno[2,3-c]pyridine]
[1]
  inhibition at 100 mg/kg: 60.6%
[2]
  inhibition at 100 mg/kg: 91.4%
